This note sets out measurements from the Bradley open melting point set (2014).

The structures appear in SMILES notation.

Take `C#CCCCCCCCCCCCCCCCC` [1-octadecyne]: the melting point was found to be 27 °C.

For the compound `C[C@]12CC[C@H]3[C@@H](CCC4=CC(=O)CC[C@@]43C)[C@@H]1CC[C@@H]2O` [testosterone], the melting point worked out at 154 °C.

The compound `CC=1CCC[C@](C)(C)C=1/C=CC(C)=CC=CC(C)=CC(=O)O` [Retinoic acid] displayed a melting point of 190 °C.

Compound `OC[C@H]1O[C@@H](Oc2ccc(O)cc2)[C@H](O)[C@@H](O)[C@@H]1O` [arbutin] registered a melting point of 198 °C.

`Cc1ccc(Br)cc1` [4-bromotoluene] came in with a melting point of 28 °C.

The compound `C=C(C)C(C)C` [2,3-dimethyl-1-butene] yielded a melting point of -157 °C.

With `O=[N+]([O-])c1ccccc1/C=C(/Cl)c1ccccn1` [2-[(E)-1-chloro-2-(2-nitrophenyl)ethenyl]pyridine], the melting point is 61 °C.

The compound `OC[C@H]1OC(O)[C@@H](O)[C@@H](O)[C@@H]1O` (stereo partly drawn) [D-mannose] came in with a melting point of 130 °C.

Take `CCC(C)(C)CC` [3,3-dimethylpentane]: the melting point was -134 °C.

As for `Nc1ccc(S(=O)(=O)Nc2ccccn2)cc1` [Sulfapyridine], the melting point was 192 °C.

`Cc1cc(C)nc(NS(=O)(=O)c2ccc(N)cc2)n1` [sulfamethazine] returned a melting point of 200 °C.

Regarding `C[C@@H]1CNC[C@H](C)O1` [cis-2,6-dimethylmorpholine], the melting point is -85 °C.

A word on the melting point: it is the temperature, or range, at which the solid turns liquid.
